We go through one compound from US8715155B2, “Embryo development and survival” (University of Tennessee Research Foundation, priority 2005, dated 2014).

The test system of series [1] is Pre-compacted 16- to 32-cell stage bovine embryos. Particulars: 1000 nM AL-8810 + 1 ng/ml PGF, 48 h culture, assessed day 8.
Description: Pre-compacted 16- to 32-cell stage bovine embryos (day 4 post fertilization) are washed in KSOM-PVA and divided into four groups, each of which is cultured for 48 hours in KSOM-PVA containing one of the following: (1) 1000 nM AL-8810, n=95 (AL-8810 group); (2) 1 ng/ml PGF, n=91 (PGF group); (3) 1000 nM AL-8810+1 ng/ml PGF, n=90 (AL-8810+PGF group); or (4) KSOM-PVA without AL-8810 or PGF, n=84 (Control group).
Following the 48 hour culture, embryos from each group are placed in HEPES-TALP and embryonic development is assessed by a technician who is uninformed of the treatments of the embryos in each group. Embryos from each treatment group are washed in KSOM-PVA and transferred to a 4-well plate with KSOM-PVA for further culture until day 8 post fertilization, when embryonic development is again assessed.
The test system of series [2] is developmentally challenged bovine oocytes. The series can be described thus: Maturation of developmentally challenged oocytes with a PGF2α antagonist, then fertilization. The class given is cell-based. How it is done: In a second study, bovine oocytes were obtained from ovaries of slaughtered cows. Oocytes that were developmentally challenged (development of oocyte to blastocyst less than 20%) were included in the study. The oocytes were matured for 24 hours in a standard maturation medium that either contained the PGF2α antagonist AL-8810 (treatment group) or that lacked the PGF2α antagonist (control group) and were then fertilized. Oocytes were observed on day 3 for the presence of cleavage and on day 9 for the presence of blastocyst development. The percentage of oocytes in that underwent cleavage and that developed into blastocysts was determined.

The subject of series [3] is bovine cumulus-oocyte-complexes. Nature of the series: Maturation of heat-stressed cumulus-oocyte-complexes with a PGF2α antagonist. The class given is cell-based. Particulars: COC matured at 41.0° C. for first 12 h, AL-8810 at 250, 400 or 1000 nM; FIG. 1. How it is done: In a first study, bovine cumulus-oocyte-complexes were divided into three groups. Each of the three groups were matured for 24 hours under heat-stress conditions at 41.0° C. for 12 hours, followed by 38.5° C. for the remaining 12 hours. A first group, referred to as the development control group, was matured utilizing a standard maturation medium. A second group, referred to as the diluent control group, was matured under the same conditions utilizing the same standard maturation medium to which was added a diluent DMSO (dimethyl sulfoxide). A third group, referred to as the treatment group, was matured under the same conditions utilizing the same standard maturation medium to which was added the PGF2α antagonist AL-8810 at a concentration of 250, 400, or 1000 nM. To prepare the diluent control, DMSO was added to the OMM to yield the same concentration as would be contained in the PGF2α antagonist dose being tested (0.0025, 0.004 and 0.01% v/v final concentration for the 250, 400 and 1000 nM doses, respectively). The generalized linear mixed models (GLIMMIX) procedure of SAS version 9.1 (SAS Institute; Cary, N.C.; 2003) was used to perform analyses. Data are presented as least square means±the standard error of the mean. […]

The subject of series [4] is Pre-compacted 16- to 32-cell stage bovine embryos. The series can be described thus: Dose response study of AL-8810 on embryo development. Particulars: 96 h. The format is cell-based. The protocol:
Incubation conditions are 5.5% CO2, 7% O2, and 87.5% N2 at 38.5° C. The four groups are as follows: (1) KSOM-PVA+AL-8810 at 1000 nM, n=93 (High AL-8810 group); (2) KSOM-PVA+AL-8810 at 500 nM, n=95 (Medium AL-8810 group); (3) KSOM-PVA+AL-8810 at 250 nM, n=93 (Low AL-8810 group); and (4) KSOM-PVA with an equivalent volume of DMSO (dimethylsulfoxide) as used for the first three groups, n=95 (Control group).

The subject of series [5] is embryos placed in recipient animals. The series can be described thus: Pre-treatment of embryos in recovery and/or freezing/transfer media before embryo transfer. The class given is in vivo, cattle. How it is done: Approximately 100 embryo recoveries are performed on day 7 after estrus in beef and dairy cows (lactating and dry). Cows are superovulated (Folltropin) and embryos recovered, evaluated, and frozen (1.5 M Ethylene Glycol; EG) as previously reported (Schrick et al., Biol. Reprod. 49:617-621 (1993)). Half of the embryo recoveries occur utilizing 1 L of each of the following alternative media preparations: 1) Embryo recovery (flush) media (CON, n=50 recoveries; Dulbecco's PBS+1% FCS; GibcoBRL, Cat.#21300-025; Grand Island, N.Y.) or 2) Embryo recovery (flush) media+AL-8810 (TRT, n=50 recoveries; 430 nM of AL-8810).
Following filtering, embryo dishes are searched, embryos removed (placed in Vigro), and evaluated for quality and development (IETS guidelines). […]
Over a two year period, recipient animals (dairy and beef cows and heifers; n=500) have estrus synchronized utilizing GnRH/CIDR/Estrumate protocol consisting of administration of 100 ug GnRH (Cysterolin; Merial) and CIDR (intravaginal progesterone releasing device; Pfizer) insertion on day 0, CIDR removal and injection of 2 mL Estrumate (Schering-Plough Animal Health) on day 7, and estrous detection (twice daily) from days 8 through 12. […] Embryos used for ET are thawed (10 sec air thaw; 30 sec in 25° C. water bath), straw labeling (embryo ID) information recorded, and recipient ID collected. […]

[6] abbreviates: oocytes matured 24 h with AL-8810, of those that cleaved.

On to `O=C(O)CCC/C=C\CC1C(O)CC(F)C1/C=C/C(O)C1Cc2ccccc2C1` (stereo not drawn) [AL-8810, 11β-fluoro-15-epi-15-indanyl-tetranor PGF2α], for which the “embryonic development in the presence of PGF” value in series [1] was “decreases the negative effects of PGF on embryonic development”. The “deleterious or toxic effect on oocytes or developing embryos (stage and development of blastocysts)” value in series [2] (oocytes matured 24 h with AL-8810) was “does not exert a deleterious or toxic effect”. Besides, the “Cleaved (%)” value in series [2] (oocytes matured 24 h with AL-8810, observed day 3) came to 60.4%. Also, the “Blastocyst/PZ (%)” value in series [2] (oocytes matured 24 h with AL-8810, observed day 9) came to 17.7%. Further, in series [2] (setting [6]), the “2-cell (%)” value is reported as 7.2%, the “4-cell (%)” value was 15.2% and the “8 to 16-cell (%)” value is reported as 76.7%. Besides, in series [3], the “blastocyst development after heat stress” value is “the effect of heat stress to reduce blastocyst development was no longer observed”. For the same compound, the “early embryonic development of pre-compacted embryos” value in series [4] (AL-8810 at 250, 500 and 1000 nM, vs control group) is on record as “does not decrease or increase early embryonic development”. Further, the embryonic development in series [4] (High AL-8810 group (1000 nM), vs 49.9+/-3.9% control, p<0.05) stood at 60.3%+/−3.9. Further, in series [5] (AL-8810 (430 nM in flush media) in embryo recovery and/or freezing/transfer media), the pregnancy rates result is on record as “increases pregnancy rates”. Further, the “abnormalities in calves resulting from the pregnancies” value in series [5] (embryos pre-treated with AL-8810 in media) is reported as “No abnormalities are observed in the calves”.
